Like-named read-outs stand apart in the source and are kept apart here.
How the values were obtained:
[1] = tested on: Abeta 40 in CSF and brain; assay: In vivo inhibition of beta-secretase: Abeta 40 reduction in CSF and brain of the rat; settings: 10 mpk (unless otherwise noted), after 4 hrs
Source text: In Vivo Inhibition of Beta-Secretase
Several animal models, including mouse, rat, dog, and monkey, may be used to screen for inhibition of beta-secretase activity in vivo following administration of a test compound sample. Animals used in this invention can be wild type, transgenic, or gene knockout animals. […] A separate group of animals receive 2% hydroxypropyl methylcellulose, 1% Tween80 alone, containing no test compound, and serve as a vehicle-control group. At the end of the test period, animals are sacrificed and brain tissues, plasma or cerebrospinal fluid are collected. […] Homogenates are centrifuged at 355,000 g, 4° C. for 30 minutes. CSF or brain supernatants are then analyzed for the presence of A-beta peptide by specific sandwich ELISA assays based on ECL (Electrochemiluminescence) technology. For example, rat Abeta40 is measured using biotinylated-4G8 (Signet) as a capture antibody and Fab40 (an in-house antibody specific to the C-terminal of Abeta40) as a detection antibody.
Actual vehicles used: Oral: 2% HPMC, 1% Tween80, pH 2.2

[2] = tested on: Aβ40 in conditioned medium of cells stably expressing Amyloid Precursor Protein (APP); assay: In vitro BACE cell-based assay (Aβ40 sandwich ELISA); settings: Homo sapiens, read-out: HEK cell assay IC50
How it was run: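 Aβ40 in supernatants was measured by time-resolved fluorescence sandwich ELISA using pAb40 capture and biotinylated 6E10 detection, with antibody incubations at 4 °C. Stable APP cells were exposed to compounds for 24 h in a 10-point series (top dose 100 or 10 µM, 0.1% DMSO). IC50 was fitted from the concentration-response.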

[3] = target: Beta Secretase enzyme (BACE) (Homo sapiens (Human), UniProt P56817); assay: In vitro enzymatic BACE FRET assay; type: biochemical; settings: read-out: BACE 1 FRET assay IC50
How it was run: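 A quenched fluorophore-peptide spanning the BACE cleavage site served as substrate at 50 nM, with one-hour incubation in pH 4.2 acetate buffer containing 100 uM genapol and 10% DMSO final. Fluorescence was measured after quenching with Tris to neutral pH.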

Cathepsin D (Cat D) = Cathepsin D (Cat D) (Homo sapiens (Human), UniProt P07339); assay: In vitro enzymatic Cathepsin D (Cat D) FRET assay; type: biochemical; settings: read-out: CatD IC50
How it was run: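 CHO-expressed recombinant Cat D cleaves a fluorophore/quencher FRET peptide (20 nM) in 0.05 M citrate pH 3.5, 5 mM CHAPS, 10% DMSO final, over 1 h. Tris addition neutralizes pH to stop the reaction; fluorescence read at excitation 500 nm, emission 580 nm.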

Aβ in lumbar CSF = settings: healthy volunteers, oral dosing of 30 or 90 mg; cited from earlier work
[4] = higher compound dose given for three months; cited from earlier work
CSF Aβ40 = settings: healthy individuals, 36 h post-dose, cited from earlier work
[5] = Abeta 40, rat CSF, read-out: % reduction of rat CSF levels at 10 pmk
[6] = Abeta 40, rat brain, read-out: % reduction of rat brain levels at 10 mpk
[7] = HEK293, average IC50, HEK cell assay
[8] = average IC50, BACE enzyme assay
[9] = average IC50, cathepsin D enzyme assay

Cathepsin D (Cat D), sequence (P07339 65-412, species assumed): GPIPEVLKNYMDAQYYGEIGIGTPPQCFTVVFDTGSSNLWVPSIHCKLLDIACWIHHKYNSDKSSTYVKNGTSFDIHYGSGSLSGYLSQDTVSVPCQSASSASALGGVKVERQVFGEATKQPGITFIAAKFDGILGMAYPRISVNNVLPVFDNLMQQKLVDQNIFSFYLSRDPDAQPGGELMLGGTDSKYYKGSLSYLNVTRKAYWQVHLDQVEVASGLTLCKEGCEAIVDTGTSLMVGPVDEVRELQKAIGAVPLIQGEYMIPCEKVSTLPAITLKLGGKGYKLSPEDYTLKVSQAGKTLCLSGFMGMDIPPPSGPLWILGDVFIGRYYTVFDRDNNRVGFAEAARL
Beta Secretase enzyme (BACE), sequence (P56817 46-501): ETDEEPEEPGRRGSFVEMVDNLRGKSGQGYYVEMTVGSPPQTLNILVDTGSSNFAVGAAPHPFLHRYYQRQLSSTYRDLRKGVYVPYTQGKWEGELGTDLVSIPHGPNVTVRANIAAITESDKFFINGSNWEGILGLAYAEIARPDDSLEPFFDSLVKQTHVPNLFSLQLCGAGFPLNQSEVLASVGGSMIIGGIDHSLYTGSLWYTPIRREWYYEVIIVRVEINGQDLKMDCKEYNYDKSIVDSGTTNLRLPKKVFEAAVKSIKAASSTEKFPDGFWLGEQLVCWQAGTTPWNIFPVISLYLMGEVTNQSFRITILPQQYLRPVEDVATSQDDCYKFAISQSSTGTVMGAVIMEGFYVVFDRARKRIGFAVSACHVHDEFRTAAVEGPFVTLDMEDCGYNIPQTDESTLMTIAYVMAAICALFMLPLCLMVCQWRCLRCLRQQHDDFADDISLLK

| SMILES | inhibition in vivo at 10 mg/kg [1, 5] | inhibition in vivo at 10 mg/kg [1, 6] | IC50 [2, 7] | IC50 [3, 8] | IC50 (Cathepsin D (Cat D); [9]) | further results |
| --- | --- | --- | --- | --- | --- | --- |
| NC1=N[C@](CF)(c2nc(NC(=O)c3nn(C(F)F)cc3Cl)ccc2F)C[C@@H](C(F)(F)F)O1 [Example 135, N-(6-((4S,6S)-2-amino-4-(fluoromethyl)-6-(trifluoromethyl)-5,6-dihydro-4H-1,3-oxazin-4-yl)-5-fluoropyridin-2-yl)-4-chloro-1-(difluoromethyl)-1H-pyrazole-3-carboxamide] | 64% | 55% | 31 nM | 52 nM | 1.17 mM |  |
| C#CCOc1cnc(C(=O)Nc2cc(F)c(F)c([C@]3(CF)C[C@@H](C(F)(F)F)OC(N)=N3)c2)cn1 [Example 154, N-(3-((4S,6S)-2-amino-4-(fluoromethyl)-6-(trifluoromethyl)-5,6-dihydro-4H-1,3-oxazin-4-yl)-4,5-difluorophenyl)-5-(prop-2-yn-1-yloxy)pyrazine-2-carboxamide] | 67% | 71% | 9.6 nM | 1.4 nM | > 0.4 mM |  |
| CC#CCOc1cnc(C(=O)Nc2cc(F)c(F)c([C@]3(CF)C[C@@H](C(F)(F)F)OC(N)=N3)c2)cn1 [Example 155, N-(3-((4S,6S)-2-amino-4-(fluoromethyl)-6-(trifluoromethyl)-5,6-dihydro-4H-1,3-oxazin-4-yl)-4,5-difluorophenyl)-5-(but-2-yn-1-yloxy)pyrazine-2-carboxamide] | 26% | 11% | 3.67 nM | 0.87 nM | > 0.4 mM |  |
| C[C@@]1(c2cc(NC(=O)c3ccc(Cl)cn3)cc(F)c2F)C[C@@H](C(F)(F)F)OC(N)=N1 [Example 164, N-(3-((4S,6S)-2-amino-4-methyl-6-(trifluoromethyl)-5,6-dihydro-4H-1,3-oxazin-4-yl)-4,5-difluorophenyl)-5-chloropicolinamide] | 77% | 75% | 5.2 nM | 24 nM | 1.35 mM |  |
| COc1cnc(C(=O)Nc2cc(F)c(F)c([C@]3(C)C[C@@H](C(F)(F)F)OC(N)=N3)c2)cn1 [Example 165, N-(3-((4S,6S)-2-amino-4-methyl-6-(trifluoromethyl)-5,6-dihydro-4H-1,3-oxazin-4-yl)-4,5-difluorophenyl)-5-methoxypyrazine-2-carboxamide] | 75% | 76% | 9.8 nM | 78 nM | 5.35 mM |  |
| COc1cnc(C(=O)Nc2cc(F)c(F)c([C@]3(C)C[C@@H](C(F)(F)F)OC(N)=N3)c2)c(Cl)c1 [Example 169, N-(3-((4S,6S)-2-amino-4-methyl-6-(trifluoromethyl)-5,6-dihydro-4H-1,3-oxazin-4-yl)-4,5-difluorophenyl)-3-chloro-5-methoxypicolinamide] | 48% | 46% | 8.9 nM | 37 nM | > 0.4 mM |  |
| Cc1cc(C(F)F)cnc1C(=O)Nc1cc(F)c(F)c([C@]2(C)C[C@@H](C(F)(F)F)OC(N)=N2)c1 [Example 171, N-(3-((4S,6S)-2-amino-4-methyl-6-(trifluoromethyl)-5,6-dihydro-4H-1,3-oxazin-4-yl)-4,5-difluorophenyl)-5-(difluoromethyl)-3-methylpicolinamide] | 25% | 10% | 17 nM | 43 nM | 2.06 mM |  |
| Cc1cc(NC(=O)c2ccc(Cl)cn2)cc([C@]2(CF)C[C@@H](C(F)(F)F)OC(N)=N2)c1F [Example 224, N-(3-((4S,6S)-2-amino-4-(fluoromethyl)-6-(trifluoromethyl)-5,6-dihydro-4H-1,3-oxazin-4-yl)-4-fluoro-5-methylphenyl)-5-chloropicolinamide] | 62% | 51% |  |  |  | IC50 ([2]; HEK293, HEK cells, average): 7 nM; IC50 ([3]; average): 13 nM; IC50 (Cathepsin D (Cat D); average): 0.515 mM |
| COc1cnc(C(=O)Nc2cc(C)c(F)c([C@]3(CF)C[C@@H](C(F)(F)F)OC(N)=N3)c2)cn1 [Example 227, N-(3-((4S,6S)-2-amino-4-(fluoromethyl)-6-(trifluoromethyl)-5,6-dihydro-4H-1,3-oxazin-4-yl)-4-fluoro-5-methylphenyl)-5-methoxypyrazine-2-carboxamide] | 69% | 65% |  |  |  | IC50 ([2]; HEK293, HEK cells, average): 23 nM; IC50 ([3]; average): 30 nM; IC50 (Cathepsin D (Cat D); average): > 0.4 mM |
| C[C@@]1(c2cc(-c3cncnc3)c(F)cc2F)CCSC(N)=N1 [LY2811376, (S)-4-(2,4-difluoro-5-pyrimidin-5-yl-phenyl)-4-methyl-5,6-dihydro-4H-[1,3]thiazin-2-ylamine] |  |  |  |  |  | Aβ reductions in lumbar CSF (Aβ in lumbar CSF): Prominent and long-lasting Aβ reductions in lumbar CSF |
| C[C@@]1(c2cc(-c3cncnc3)c(F)cc2F)CCSC(N)=N1 [LY 2811376] |  |  |  |  |  | rat toxicology finding [4]: damaged the pigment epithelium of the rat's eye |
| CN1C(=N)N[C@](C)(c2cc(NC(=O)c3ccc(F)cn3)ccc2F)CS1(=O)=O [MK-8931] |  |  |  |  |  | reduction of CSF Aβ40 concentrations (CSF Aβ40; single dose of 100 mg): 75%; reduction of CSF Aβ40 concentrations (CSF Aβ40; single dose of 550 mg): 92% |
